The series is described as follows: Dynamic Vapor Sorption (DVS), hygroscopicity. It is filed as physicochemical. To be noted: for hygroscopicity (in words): from DVS weight increase at 80% RH; for weight increase (DVS): at 80% RH, 25±1° C. The method, then: Dynamic Vapor Sorption (DVS) was performed by using Intrinsic DVS (Surface Measurement Systems, UK). A sample was weighed in an amount of 20-30 mg and was placed in a sample chamber. The measurement was performed at DMDT mode when the temperature of the sample chamber was maintained at 25±1° C.

Each structure is given as a SMILES string. “Also recorded” adds a separate entry of the source.

As for `C[C@@H](N)COc1ccc(-c2cnc3ccc(N[C@H](C)c4cccc(F)c4)nn23)cc1` [crystalline form A of Compound 1 free base] [3-{4-[(2R)-2-aminopropoxy]phenyl}-N-[(1R)-1-(3-fluorophenyl)ethyl]imidazo[1,2-b]pyridazin-6-amine], the “crystalline form (XRPD) of the sample before and after the DVS test” value (from here on “crystalline form (XRPD)”) is listed as “did not change”; the “hygroscopicity (in words)” value was “almost no hygroscopicity; also recorded: very low or nearly no hygroscopicity”.

Consider `C[C@@H](N)COc1ccc(-c2cnc3ccc(N[C@H](C)c4cccc(F)c4)nn23)cc1` [crystalline form B of Compound 1 adipate, 3-{4-[(2R)-2-aminopropoxy]phenyl}-N-[(1R)-1-(3-fluorophenyl)ethyl]imidazo[1,2-b]pyridazin-6-amine], for which the “weight increase (DVS)” value is “about 8.2%” and the “hygroscopicity (in words)” value was “has hygroscopicity”.

Turning to `C[C@@H](N)COc1ccc(-c2cnc3ccc(N[C@H](C)c4cccc(F)c4)nn23)cc1` [crystalline form B of Compound 1 free base] [3-{4-[(2R)-2-aminopropoxy]phenyl}-N-[(1R)-1-(3-fluorophenyl)ethyl]imidazo[1,2-b]pyridazin-6-amine], the “crystalline form (XRPD)” value is “changed”; the “hygroscopicity (in words)” value is recorded as “has hygroscopicity”.

Turning to `C[C@@H](N)COc1ccc(-c2cnc3ccc(N[C@H](C)c4cccc(F)c4)nn23)cc1` [crystalline form C of Compound 1 adipate, 3-{4-[(2R)-2-aminopropoxy]phenyl}-N-[(1R)-1-(3-fluorophenyl)ethyl]imidazo[1,2-b]pyridazin-6-amine], the “weight increase (DVS)” value is listed as “about 1%” and the “hygroscopicity (in words)” value was “low hygroscopicity”.

With `C[C@@H](N)COc1ccc(-c2cnc3ccc(N[C@H](C)c4cccc(F)c4)nn23)cc1` [crystalline form C of Compound 1 free base] [3-{4-[(2R)-2-aminopropoxy]phenyl}-N-[(1R)-1-(3-fluorophenyl)ethyl]imidazo[1,2-b]pyridazin-6-amine], the “crystalline form (XRPD)” value was “no crystalline form change”; the “hygroscopicity (in words)” value is recorded as “has hygroscopicity”.

With `C[C@@H](N)COc1ccc(-c2cnc3ccc(N[C@H](C)c4cccc(F)c4)nn23)cc1` [crystalline form D of Compound 1 adipate, 3-{4-[(2R)-2-aminopropoxy]phenyl}-N-[(1R)-1-(3-fluorophenyl)ethyl]imidazo[1,2-b]pyridazin-6-amine], the “hygroscopicity (in words)” value is given as “low hygroscopicity”.

On to `C[C@@H](N)COc1ccc(-c2cnc3ccc(N[C@H](C)c4cccc(F)c4)nn23)cc1` [crystalline form D of Compound 1 free base] [3-{4-[(2R)-2-aminopropoxy]phenyl}-N-[(1R)-1-(3-fluorophenyl)ethyl]imidazo[1,2-b]pyridazin-6-amine], for which the “crystalline form (XRPD)” value is listed as “did not change”; the “weight increase (DVS)” value worked out at 2.896%; the “hygroscopicity (in words)” value is reported as “some hygroscopicity”.

These data come from US20240309007A1, “CRYSTALLINE FORMS OF 3-{4-[(2R)-2-AMINOPROPOXY]PHENYL}-N-[(1R)- 1-(3-FLUOROPHENYL) ETHYL]IMIDAZO[1,2-B]PYRIDAZIN-6-AMINE AND SALTS THEREOF” (ANHEART THERAPEUTICS (HANGZHOU) CO., LTD., priority 2021, published 2024).
